The source of these data is ChEMBL document CHEMBL4706695, “Small molecule approaches to treat autoimmune and inflammatory diseases (Part I): Kinase inhibitors” (Bioorg Med Chem Lett, 2021).

In the test the target is Tyrosine-protein kinase BTK (Homo sapiens, UniProt Q06187). As to the kind of experiment: Inhibition of BTK (unknown origin) One-hour enzymatic assay without pre-incubation.
Sequence of Tyrosine-protein kinase BTK (Q06187 whole entry): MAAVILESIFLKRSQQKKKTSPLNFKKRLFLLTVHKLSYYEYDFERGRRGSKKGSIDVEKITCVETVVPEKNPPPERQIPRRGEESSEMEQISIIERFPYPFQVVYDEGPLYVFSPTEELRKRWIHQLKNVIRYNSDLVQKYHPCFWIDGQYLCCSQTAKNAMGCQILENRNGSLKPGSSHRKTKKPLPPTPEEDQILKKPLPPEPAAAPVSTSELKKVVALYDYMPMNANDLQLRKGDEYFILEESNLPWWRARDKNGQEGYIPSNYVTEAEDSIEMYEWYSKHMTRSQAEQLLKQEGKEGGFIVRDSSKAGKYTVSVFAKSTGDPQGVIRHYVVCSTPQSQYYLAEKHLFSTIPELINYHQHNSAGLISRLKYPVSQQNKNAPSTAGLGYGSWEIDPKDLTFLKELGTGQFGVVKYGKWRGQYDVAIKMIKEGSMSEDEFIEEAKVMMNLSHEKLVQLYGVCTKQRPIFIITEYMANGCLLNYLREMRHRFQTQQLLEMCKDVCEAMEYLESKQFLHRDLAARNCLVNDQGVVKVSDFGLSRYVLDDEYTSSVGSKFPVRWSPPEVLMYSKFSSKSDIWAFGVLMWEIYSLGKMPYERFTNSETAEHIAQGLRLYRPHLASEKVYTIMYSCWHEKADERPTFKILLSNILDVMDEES

The IC50 is the point on the concentration scale where inhibition reaches its midpoint. A higher IC50 goes with weaker potency. `N#CN1CCC[C@@H](n2nc(-c3ccc(Oc4ccc(F)cc4F)cc3)c(C(N)=O)c2N)C1`: the IC50 came to 0.5 nM.

Take `C=CC(=O)N1CCC[C@@H](c2ccc(C(N)=O)c3[nH]ccc23)C1` [ELSUBRUTINIB]: the IC50 amounted to 33 nM.
